Experimental data: patent US11814367B2, “Inhibitors of glycogen synthase 1 (GYS1) and methods of use thereof” (Maze Therapeutics, Inc., priority 2021, dated 2023)

Molecular target: hGYS1 enzyme (recombinant hGYS1/GN1 protein) (Homo sapiens (Human), UniProt P13807)
Experiment: GYS1 coupled enzyme assay (PK/LDH)
Assay type: biochemical
Settings: hGYS1/GN1 50 nM, UDP-Glucose 0.8 mM, G6P 1 mM; geometric mean of at least 2 runs

hGYS1 enzyme (recombinant hGYS1/GN1 protein), sequence (P13807 whole entry): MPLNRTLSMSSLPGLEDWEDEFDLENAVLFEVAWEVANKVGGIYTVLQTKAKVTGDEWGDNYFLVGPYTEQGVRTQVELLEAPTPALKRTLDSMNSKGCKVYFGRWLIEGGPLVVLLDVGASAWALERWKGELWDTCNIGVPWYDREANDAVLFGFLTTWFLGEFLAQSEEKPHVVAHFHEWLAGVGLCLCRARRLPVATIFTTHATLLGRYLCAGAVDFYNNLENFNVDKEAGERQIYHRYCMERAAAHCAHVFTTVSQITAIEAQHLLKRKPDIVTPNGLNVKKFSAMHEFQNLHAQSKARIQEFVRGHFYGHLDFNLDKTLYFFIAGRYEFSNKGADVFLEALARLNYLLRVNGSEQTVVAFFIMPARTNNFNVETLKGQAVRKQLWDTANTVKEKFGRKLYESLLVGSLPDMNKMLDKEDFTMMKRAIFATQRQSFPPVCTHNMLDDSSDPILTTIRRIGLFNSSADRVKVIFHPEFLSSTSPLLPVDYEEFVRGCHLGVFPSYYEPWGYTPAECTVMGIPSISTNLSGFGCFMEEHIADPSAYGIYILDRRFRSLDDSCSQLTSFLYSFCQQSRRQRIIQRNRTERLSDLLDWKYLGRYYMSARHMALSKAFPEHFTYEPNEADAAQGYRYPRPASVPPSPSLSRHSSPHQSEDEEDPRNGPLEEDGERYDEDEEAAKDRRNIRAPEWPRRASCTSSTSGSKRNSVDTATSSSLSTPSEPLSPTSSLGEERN
hGYS1 enzyme (recombinant hGYS1/GN1 protein), sequence (P46976 whole entry partner): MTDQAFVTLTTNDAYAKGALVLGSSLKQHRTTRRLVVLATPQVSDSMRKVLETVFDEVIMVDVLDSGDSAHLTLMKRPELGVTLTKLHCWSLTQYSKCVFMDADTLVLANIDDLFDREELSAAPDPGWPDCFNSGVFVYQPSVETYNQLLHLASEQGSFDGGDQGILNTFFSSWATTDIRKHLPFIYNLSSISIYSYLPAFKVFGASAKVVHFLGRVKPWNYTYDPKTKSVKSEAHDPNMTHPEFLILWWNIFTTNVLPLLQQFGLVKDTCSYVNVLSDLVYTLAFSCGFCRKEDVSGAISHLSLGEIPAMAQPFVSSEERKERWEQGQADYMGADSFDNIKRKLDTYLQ

Molecule `COc1ccc(C2CC2C(=O)N2C[C@H](F)C[C@H]2C(=O)N[C@@H](c2ccccc2)c2ccc(C(C)C)cc2)cc1` (stereo partly drawn) [Compound 703, (2S,4R)-4-fluoro-1-[2-(4-methoxyphenyl)cyclopro-panecarbonyl]-N-[(S)-phenyl[4-(propan-2-yl)phenyl]methyl]pyrrol-idine-2-carboxamide] has an IC50 of 2160 nM.

`CCc1nc(C(=O)N2C[C@H](F)C[C@H]2C(=O)N[C@@H](c2ccccc2)c2ccc(C(C)C)cc2)co1` [Compound 42, (2S,4R)-1-(2-ethyl-1,3-oxazole-4-carbonyl)-4-fluoro-N-[(S)-phenyl[4-(propan-2-yl)phenyl]methyl]pyrrolidine-2-carboxamide] showed an IC50 of 495 nM.

In the case of `CC(C)c1ccc(C(NC(=O)[C@@H]2C[C@@H](F)CN2C(=O)Cc2cnn[nH]2)c2cncc(F)c2)cc1F` (single isomer, unassigned) [Compound 617, (2S,4R)-4-fluoro-N-[(R) or (S)-[3-fluoro-4-(propan-2-yl)phenyl](5-fluoropyridin-3-yl)methyl]-1-[2-(1H-1,2,3-triazol-5-yl)acetyl]pyrrolidine-2-carboxamide], the IC50 is reported as 1640 nM.

For `C#CCCCCCC(=O)N1CCC[C@H]1C(=O)N[C@@H](c1ccccc1)c1ccc(C(C)C)cc1` [Compound 701, (2S)-1-(oct-7-ynoyl)-N-[(S)-phenyl[4-(propan-2-yl)phenyl]methyl]pyrrol-idine-2-carboxamide], the IC50 was 446 nM.

`CC(=O)N1CCCC(C)(C(=O)N2C[C@H](F)C[C@H]2C(=O)N[C@@H](c2ccccc2)c2ccc(C(C)C)cc2)CC1` (stereo partly drawn) [Compound 181, (2S,4R)-1-(1-acetyl-4-methylazepane-4-carbonyl)-4-fluoro-N-[(S)-phenyl[4-(propan-2-yl)phenyl]methyl]pyrrolidine-2-carboxamide] was tested, and the IC50 was 449 nM.

`CC(=O)N1CCO[C@@H](C)[C@@H]1C(=O)N1C[C@H](F)C[C@H]1C(=O)N[C@@H](c1ccccc1)c1ccc(C(C)C)cc1` [Compound 159, (2S,4R)-1-[(2S,3R)-4-acetyl-2-methylmorpholine-3-carbonyl]-4-fluoro-N-[(S)-phenyl[4-(propan-2-yl)phenyl]methyl]pyrrolidine-2-carboxamide] was tested, and the IC50 was 740 nM.

Work on `CC(C)c1ccc([C@H](NC(=O)[C@@H]2C[C@@H](F)CN2C(=O)Cc2nnn[nH]2)c2ccccc2)cc1F` [Compound 329, (2S,4R)-4-fluoro-N-[(R)-[3-fluoro-4-(propan-2-yl)phenyl](phenyl)methyl]-1-[2-(1H-1,2,3,4-tetrazol-5-yl)acetyl]pyrrolidine-2-carboxamide] yielded an IC50 of 336 nM.

`CC(C)c1ccc([C@@H](NC(=O)[C@@H]2C[C@@H](F)CN2C(=O)CN2CCNCC2)c2ccccc2)cc1` [Compound 234, (2S,4R)-4-fluoro-N-[(S)-phenyl[4-(propan-2-yl)phenyl]methyl]-1-[2-(piperazin-1-yl)acetyl]pyrrolidine-2-carboxamide] showed an IC50 of 695 nM.

`CC(=O)N1CC(CC(=O)N2C[C@H](F)C[C@H]2C(=O)N[C@@H](c2ccccc2)c2ccc(C(C)C)cc2)Oc2ccccc21` (stereo partly drawn) [Compound 116, (2S,4R)-1-[2-(4-acetyl-3,5-dihydro-2H-1,4-benzoxazin-2-yl)acetyl]-4-fluoro-N-[(S)-phenyl[4-(propan-2-yl)phenyl]methyl]pyrrolidine-2-carboxamide] was tested, and the IC50 was 121 nM.

Work on `CC(Cn1ccnc1)C(=O)N1C[C@H](F)C[C@H]1C(=O)N[C@@H](c1ccccc1)c1ccc(C(C)C)cc1` (stereo partly drawn) [Compound 79, (2S,4R)-4-fluoro-1-[3-(1H-imidazol-1-yl)-2-methylpropanoyl]-N-[(S)-phenyl[4-(propan-2-yl)phenyl]methyl]pyrrolidine-2-carboxamide] yielded an IC50 of 313 nM.

`CC(C)c1ccc([C@@H](NC(=O)[C@@H]2C[C@@H](F)CN2C(=O)c2ccc3c(c2)NC(=O)CO3)c2ccccc2)cc1` [Compound 122, (2S,4R)-4-fluoro-1-(3-oxo-3,4-dihydro-2H-1,4-benzoxazine-6-carbonyl)-N-[(S)-phenyl[4-(propan-2-yl)phenyl]methyl]pyrrolidine-2-carboxamide] was tested, and the IC50 was 989 nM.

`CC(=O)N1C[C@H](F)C[C@H]1C(=O)NC(c1cccc(-c2ccno2)c1)c1ccc(C(C)C)c(F)n1` (single isomer, unassigned) [Compound 698, (2S,4R)-1-acetyl-4-fluoro-N-[(S) or (R)-[6-fluoro-5-(propan-2-yl)pyridin-2-yl][3-(1,2-oxazol-5-yl)phenyl]methyl] pyrrolidine-2-carboxamide] gave an IC50 of 151 nM.

`O=C(N[C@@H](c1ccccc1)c1ccc(C2CC2)c(F)n1)[C@@H]1[C@@H](O)[C@H](F)CN1C(=O)Cn1nnnc1C(F)F` [Compound 763, (2S,3R,4R)-N-[(S)-(5-cyclopropyl-6-fluoropyridin-2-yl)(phenyl)methyl]-1-{2-[5-(difluoromethyl)-1H-1,2,3,4-tetrazol-1-yl]acetyl}-4-fluoro-3-hydroxypyrrolidine-2-carboxamide] was tested, and the IC50 was 466 nM.

Work on `CC(C)c1ccc([C@@H](NC(=O)[C@@H]2C[C@@H](F)CN2C(=O)C(C)n2cccn2)c2ccccc2)cc1` (stereo partly drawn) [Compound 43, (2S,4R)-4-fluoro-N-[(S)-phenyl[4-(propan-2-yl)phenyl]methyl]-1-[2-(1H-pyrazol-1-yl)propanoyl]pyrrolidine-2-carboxamide] yielded an IC50 of 91 nM.

Work on `CC(=O)N(C)C(C)C(=O)N1C[C@H](F)C[C@H]1C(=O)N[C@@H](c1ccccc1)c1ccc(C(C)C)cc1` (stereo partly drawn) [Compound 71, (2S,4R)-4-fluoro-1-[2-(N-methylacetamido)propanoyl]-N-[(S)-phenyl[4-(propan-2-yl)phenyl]methyl]pyrrolidine-2-carboxamide] yielded an IC50 of 375 nM.

`CC(=O)N1CCC2(CC2C(=O)N2C[C@H](F)C[C@H]2C(=O)N[C@@H](c2ccccc2)c2ccc(C(C)C)cc2)C1` (stereo partly drawn) [Compound 156, (2S,4R)-1-{5-acetyl-5-azaspiro[2.4]heptane-1-carbonyl}-4-fluoro-N-[(S)-phenyl[4-(propan-2-yl)phenyl]methyl]pyrrolidine-2-carboxamide] showed an IC50 of 304 nM.

With `CC(=O)N1CC[C@@H](C)[C@H](C(=O)N2C[C@H](F)C[C@H]2C(=O)N[C@@H](c2ccccc2)c2ccc(C(C)C)cc2)C1` [Compound 170, (2S,4R)-1-[(3S,4R)-1-acetyl-4-methylpiperidine-3-carbonyl]-4-fluoro-N-[(S)-phenyl[4-(propan-2-yl)phenyl]methyl]pyrrolidine-2-carboxamide] the IC50 was 306 nM.

Molecule `Cc1cnn(C(C)C(=O)N2C[C@H](F)C[C@H]2C(=O)N[C@@H](c2ccccc2)c2ccc(C(C)C)cc2)c1` (stereo partly drawn) [Compound 127, (2S,4R)-4-fluoro-1-[2-(4-methyl-1H-pyrazol-1-yl)propanoyl]-N-[(S)-phenyl[4-(propan-2-yl)phenyl]methyl]pyrrolidine-2-carboxamide] has an IC50 of 318 nM.

With `CC(=O)NCC(=O)N1CCC[C@H]1C(=O)NC(c1ccc(C2CC2)c(F)c1)c1ccn[nH]1` (single isomer, unassigned) [Compound 615, (2S)-N-[(R) or (S)-(4-cyclopropyl-3-fluorophenyl)(1H-pyrazol-5-yl)methyl]-1-(2-acetamidoacetyl) pyrrolidine-2-carboxamide] the IC50 was 1580 nM.

`CC(=O)N1C2CCC1CC(C(=O)N1C[C@H](F)C[C@H]1C(=O)N[C@@H](c1ccccc1)c1ccc(C(C)C)cc1)C2` (stereo partly drawn) [Compound 175, (2S,4R)-1-{8-acetyl-8-azabicyclo[3.2.1]octane-3-carbonyl}-4-fluoro-N-[(S)-phenyl[4-(propan-2-yl)phenyl]methyl]pyrrolidine-2-carboxamide] was tested, and the IC50 was 582 nM.
